Experimental data as given in patent publication US12612358B2, “Resorcinol-based compounds and uses thereof” (priority 2020, dated 2026).
pIC50: −log10 of the molar value.

Columns and labels:
IV pharmacokinetics = format: in vivo; settings: 1 mpk
Id-1 [1] = test: Id-1 expression in PANC-1 cells (Western analysis); format: cell-based, human
Protocol: Quantitative Western analysis: Cells are cultured and treated in 6-well dishes. After the cells are washed twice with cold PBS, lysis buffer is added. The cells are then lysed by freezing for 10 min at −70° C. and then thawing at ambient temperature. The cell lysate is collected and the protein content is determined by using Bradford reagent. Equal amounts of protein are heated at 90° C. in Laemmli sample buffer which also included β-mercaptoethanol. The samples are then loaded onto a precast SDS-PAGE gel (Bio-Rad Laboratories, Hercules, CA). After which, proteins are then electroblotted onto an Immobilon membrane (Millipore, Billerica, MA) overnight at 2-4° C. The membrane is then blocked for 1 hour with 5% nonfat dry milk which included TBS+Tween. The membranes are then incubated with an anti-Id-1 primary antibody, and then an appropriate secondary antibody was used. Blots are incubated for 45 min and then washed 4 times with TBS+Tween for 15 min each. The blots are developed with SuperSignal Femto (Pierce, Rockford, IL), and imaged on either a Fluorchem 8900 (Alpha Innotech, San Leandro, CA) or ECL Hyperfilm (Amersham-Pharmacia, Piscataway, NJ). Band intensity values are obtained (after background subtraction) directly from the […] using AlphaeaseFC software (San Leandro, CA) or from film using Image-J (NIH, MD). […]

SW1990 = test: CellTiter-Glo cell proliferation, SW1990 pancreatic cancer cells; format: cell-based; settings: Homo sapiens, read-out: IC50 category
From the text: (§1) Cell culture and treatment of pancreatic cancer cell lines: Pancreatic cancer cells lines BxPC-3, SW1990, and PANC-1 used in the experiments presented herein can be obtained from ATCC. The cells can be cultured and passaged in complete growth medium (RPMI-1640, Dulbecco's Modified Eagle Medium, or Leibovitz's L-15 medium) that has been supplemented with fetal bovine serum to a final concentration of 10%.
Effects of Compound-5B on proliferation and Id-1 expression in pancreatic cell lines. Compound-5B was next tested for inhibition of cell viability/proliferation in the three pancreatic cancer cell lines and two primary patient-derived cancer cell lines. Compound-5B inhibited cell viability/proliferation of all the cancer cell lines (Table 2). The culturing condition for the pancreatic cell lines was similar to those used in the breast cancer lines, with the exception of the primary patient-derived pancreatic cancer cell lines (PANC9 and PANC13). […] Cell proliferation of pancreatic cells in the presence of drug was measured using the CellTiter-Glo luminescent Assay and IC50 values were calculated (Table 2). […]

Kasumi −1 (leukemia) = test: Cell proliferation, Kasumi-1 leukemia cells; format: cell-based; settings: Homo sapiens, read-out: IC50 category
From the text: Effects of Compound-5B on cell proliferation in additional cancer cells: To determine whether Compound-5B would have broad based anticancer activity, we study whether Compound-5B would be effective at inhibiting cell proliferation in a variety of cancers overexpressing Id-1. The assay conditions used were identical to those presented for breast and pancreatic cancers. Indeed, Compound-5B was potent at inhibiting cell proliferation in blood cancer (leukemia), glioblastoma, prostate, and ovarian cancer.

Id-1 [2] = test: Id-1 protein expression in 4T1 breast cancer cells; format: cell-based; settings: mouse 4T1 breast cancer cells
Protocol: Quantitative Western analysis: Cells are cultured and treated in 6-well dishes. After the cells are washed twice with cold PBS, lysis buffer is added. The cells are then lysed by freezing for 10 min at −70° C. and then thawing at ambient temperature. The cell lysate is collected and the protein content is determined by using Bradford reagent. Equal amounts of protein are heated at 90° C. in Laemmli sample buffer which also included β-mercaptoethanol. The samples are then loaded onto a precast SDS-PAGE gel (Bio-Rad Laboratories, Hercules, CA). After which, proteins are then electroblotted onto an Immobilon membrane (Millipore, Billerica, MA) overnight at 2-4° C. […]
Antitumor activity of Compound-5B in vivo in breast cancer. […] We also determined whether it produced a similar effect in mouse 4T1 breast cancer cells. […] Lung metastasis % (total metastatic foci in treated/vehicle×100) was evaluated (FIG. 4B). […] Animals with established tumors (average volume of 100 mm^3) were randomized and treated once daily, 6 days a week, with i.p., injections of vehicle, or 1 mg/kg Compound-5B, tumors were measured once weekly by an operator blinded to the treatment groups. Changes in tumor volume (mm^3) were calculated as (length×width2)/2. *indicates statistically significant differences between vehicle and Compound-5B (p<0.05, Two-way ANOVA repeated measures, and Tukey's multiple comparisons test).

[3] = Mouse liver microsome stability (Eurofins ADME); format: in vitro ADME
Protocol: Evaluating ADME of Compound-5B in vitro. It is important to evaluate ADME first in culture as it allows for the selection of the best candidate for PK analysis in vivo. ADME analysis of Compound-5B was performed by Eurofins.

[4] = tested on: MDA-MB231 breast cancer cells; test: Combination with paclitaxel, viability of MDA-MB231 cells (combination index); format: cell-based, human; settings: combination with paclitaxel at optimal combined ratios
Protocol: Concentration-response curves were generated for Compound-5B and paclitaxel alone and in combination (FIG. 2C). The inhibitory values from the concentration response curves were used to calculate combination index (CI) values at multiple combination ratios (FIG. 3A). Methods: Multiple viability assays in a 384 well format were run for each compound and the average percent inhibition of cell viability was calculated and transformed to fraction affected (Fa) e.g., percent inhibitory effect. CI values were calculated using Compusyn software (FIG. 3B). After determining the (IC50/Fa 0.5) values of the drugs individually (C), components were then combined at specific concentration ranges (FIG. 3B) and a combination index was calculated where CI<1, =1, and >1 indicate synergism, additive effect, and antagonism, respectively.

4T1 cells = test: 4T1 lung metastasis model in BALB/c mice; format: in vivo, mouse; settings: 4T1 tail vein, i.p. once a day, six days a week, three weeks
Protocol: Antitumor activity of Compound-5B in vivo in breast cancer. Based on the activity of Compound-5B in culture, the antitumor activity of Compound-5B was tested in vivo in two models of breast cancer (FIG. 4). Compound-5B produced a potent inhibition of Id-1 expression in human MDA-MB231 cells (FIG. 1A). We also determined whether it produced a similar effect in mouse 4T1 breast cancer cells. This cell line is commonly used for seeding a lung metastatic model in mice. […] LC=loading control (FIG. 4A). […] Lung metastases were generated in BALB/c mice by tail vein injection of 4×10^4 4T1 cells. Two days after the injection, the tumor bearing mice were injected i.p. once a day, six days a week, with vehicle or Compound 5B three weeks. Lung metastasis % (total metastatic foci in treated/vehicle×100) was evaluated (FIG. 4B). […] Animals with established tumors (average volume of 100 mm^3) were randomized and treated once daily, 6 days a week, with i.p., injections of vehicle, or 1 mg/kg Compound-5B, tumors were measured once weekly by an operator blinded to the treatment groups. Changes in tumor volume (mm^3) were calculated as (length×width2)/2. *indicates statistically significant differences between vehicle and Compound-5B (p<0.05, Two-way ANOVA repeated measures, and Tukey's multiple comparisons test).

PANC-1 = test: CellTiter-Glo cell proliferation, PANC-1 pancreatic cancer cells; format: cell-based, human
From the text: as §1
Effects of Compound-5B on proliferation and Id-1 expression in pancreatic cell lines. Compound-5B was next tested for inhibition of cell viability/proliferation in the three pancreatic cancer cell lines and two primary patient-derived cancer cell lines. Compound-5B inhibited cell viability/proliferation of all the cancer cell lines (Table 2). The culturing condition for the pancreatic cell lines was similar to those used in the breast cancer lines, with the exception of the primary patient-derived pancreatic cancer cell lines (PANC9 and PANC13). For determining inhibition of cell proliferation in patient-derived pancreatic cancer cells were cultured in a T75 ultra low attachment flasks with DMEM/F12 media supplemented with B27, penicillin/streptomycin (10,000 u/mL), 50 µg/mL human epidermal growth factor (hEGF), 50 μg/mL human fibroblast growth factor, and 5 μg/mL heparin. Cells were plated in a 384-well plate and incubated for three days to promote the formation of tumorspheres. Cells were then treated with Compound-5B for three days. Cell proliferation of pancreatic cells in the presence of drug was measured using the CellTiter-Glo luminescent Assay and IC50 values were calculated (Table 2). The IC50 and corresponding 95% confidence limits (CL) were calculated using non-linear regression analysis.

Question: For `CCCCCCC(C)(C)c1cc(O)c(C(=O)Nc2ccccc2)c(O)c1` [Compound 5B, 2,6-dihydroxy-4-(2-methyloctan-2-yl)-N-phenylbenzamide], which clearance (IV pharmacokinetics) is on record?
Answer: low

Question: What about the exposure (IV pharmacokinetics) of the same molecule?
Answer: good

Question: And the half-life (IV pharmacokinetics)?
Answer: acceptable

Question: And the “inhibition of Id-1 expression” value (Id-1 [1])?
Answer: able to effectively inhibit Id-1 expression

Question: And the pIC50 (SW1990)?
Answer: > 6.30

Question: And the pIC50 (Kasumi −1 (leukemia))?
Answer: > 6.30

Question: And the Id-1 protein expression (Id-1 [2])?
Answer: downregulation of Id-1 protein expression

Question: What about the “clearance (microsomal stability assays)” value [3] of the same molecule?
Answer: acceptable

Question: And the “half-life (microsomal stability assays)” value [3]?
Answer: acceptable

Question: What about the “stability in mouse liver microsomes” value [3] of the same molecule?
Answer: good

Question: And the “effect on paclitaxel inhibition of cell viability” value [4]?
Answer: can enhance the ability of paclitaxel to inhibit the viability

Question: And the lung metastasis (4T1 cells)?
Answer: inhibits breast cancer metastasis

Question: What about the pIC50 (PANC-1; Homo sapiens, PANC-1, read-out: IC50 category) of the same molecule?
Answer: > 6.30

Question: And the “improvement in potency (IC50) compared to the parent compound CBD” value (PANC-1; PANC-1 (by context))?
Answer: 38 fold
